Results reported in PubChem BioAssay (NCI).
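Cultured in 96-well plates, cells were exposed to test compound for 48 hours across five concentrations. The concentration for 50% growth inhibition is given as GI50. TGI: concentration producing complete growth inhibition.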

Legend:
Assay in all cases: DTP human tumour cell line panel, 48 h
CCRF-CEM leukemia = test system: CCRF-CEM leukemia
HL-60(TB) leukemia = test system: HL-60(TB) leukemia
SK-MEL-2 melanoma = test system: SK-MEL-2 melanoma
OVCAR-4 ovarian = test system: OVCAR-4 ovarian
M14 melanoma = test system: M14 melanoma
IGROV1 ovarian = test system: IGROV1 ovarian
OVCAR-5 ovarian = test system: OVCAR-5 ovarian
TK-10 renal = test system: TK-10 renal
NCI/ADR-RES ovarian = test system: NCI/ADR-RES ovarian
PC-3 prostate = test system: PC-3 prostate
NCI-H23 lung = test system: NCI-H23 lung
SNB-19 CNS = test system: SNB-19 CNS
SK-OV-3 ovarian = test system: SK-OV-3 ovarian
NCI-H522 lung = test system: NCI-H522 lung
UACC-257 melanoma = test system: UACC-257 melanoma
T-47D breast = test system: T-47D breast
SF-295 CNS = test system: SF-295 CNS
HOP-62 NSCLC = test system: HOP-62 NSCLC
KM12 colon = test system: KM12 colon
U251 CNS = test system: U251 CNS
ACHN renal = test system: ACHN renal
NCI-H460 lung = test system: NCI-H460 lung
K-562 leukemia = test system: K-562 leukemia
LOX IMVI melanoma = test system: LOX IMVI melanoma
SNB-75 CNS = test system: SNB-75 CNS
MOLT-4 leukemia = test system: MOLT-4 leukemia
MCF7 breast = test system: MCF7 breast
MDA-MB-435 = test system: MDA-MB-435
MDA-MB-231 breast = test system: MDA-MB-231 breast
A549 NSCLC = test system: A549 NSCLC
OVCAR-8 ovarian = test system: OVCAR-8 ovarian
DU-145 prostate = test system: DU-145 prostate
MALME-3M melanoma = test system: MALME-3M melanoma
CAKI-1 renal = test system: CAKI-1 renal
RPMI-8226 leukemia = test system: RPMI-8226 leukemia
COLO 205 colon = test system: COLO 205 colon
SK-MEL-5 melanoma = test system: SK-MEL-5 melanoma
SW-620 colon = test system: SW-620 colon
786-0 renal = test system: 786-0 renal
HT29 colon = test system: HT29 colon
HS 578T breast = test system: HS 578T breast
EKVX NSCLC = test system: EKVX NSCLC
UO-31 renal = test system: UO-31 renal
SK-MEL-28 melanoma = test system: SK-MEL-28 melanoma
UACC-62 melanoma = test system: UACC-62 melanoma
HCT-15 colon = test system: HCT-15 colon
OVCAR-3 ovarian = test system: OVCAR-3 ovarian
SN12C renal = test system: SN12C renal
HCC-2998 colon = test system: HCC-2998 colon
HOP-92 NSCLC = test system: HOP-92 NSCLC
HCT-116 colon = test system: HCT-116 colon
NCI-H226 lung = test system: NCI-H226 lung
SF-539 CNS = test system: SF-539 CNS

For `C=C(C)C(C1C=C(CCC(C=O)=C(C)C)C(=O)O1)C1(OC)C=C(C)C(=O)O1` (stereo unspecified), the GI50 (CCRF-CEM leukemia) was 25.3 µM, the TGI (CCRF-CEM leukemia) was greater than 100 µM and the GI50 (HL-60(TB) leukemia) was greater than 100 µM. For the same compound, the TGI (HL-60(TB) leukemia) was greater than 100 µM, the GI50 (SK-MEL-2 melanoma) was greater than 100 µM and the TGI (SK-MEL-2 melanoma) was greater than 100 µM. The GI50 (OVCAR-4 ovarian) was greater than 100 µM, the TGI (OVCAR-4 ovarian) was greater than 100 µM and the GI50 (M14 melanoma) was greater than 100 µM. For the same compound, the TGI (M14 melanoma) was greater than 100 µM, the GI50 (IGROV1 ovarian) was 92.6 µM and the TGI (IGROV1 ovarian) was greater than 100 µM. For the same compound, the GI50 (OVCAR-5 ovarian) was greater than 100 µM, the TGI (OVCAR-5 ovarian) was greater than 100 µM and the GI50 (TK-10 renal) was greater than 100 µM. For the same compound, the TGI (TK-10 renal) was greater than 100 µM, the GI50 (NCI/ADR-RES ovarian) was greater than 100 µM and the TGI (NCI/ADR-RES ovarian) was greater than 100 µM. The GI50 (PC-3 prostate) was greater than 100 µM, the TGI (PC-3 prostate) was greater than 100 µM and the GI50 (NCI-H23 lung) was 91.3 µM. The TGI (NCI-H23 lung) was greater than 100 µM, the GI50 (SNB-19 CNS) was greater than 100 µM and the TGI (SNB-19 CNS) was greater than 100 µM. It also gave a GI50 (SK-OV-3 ovarian) greater than 100 µM, a TGI (SK-OV-3 ovarian) greater than 100 µM and a GI50 (NCI-H522 lung) greater than 100 µM. It also gave a TGI (NCI-H522 lung) greater than 100 µM, a GI50 (UACC-257 melanoma) greater than 100 µM and a TGI (UACC-257 melanoma) greater than 100 µM. The GI50 (T-47D breast) was 25.8 µM, the TGI (T-47D breast) was greater than 100 µM and the GI50 (SF-295 CNS) was greater than 100 µM. It also gave a TGI (SF-295 CNS) greater than 100 µM, a GI50 (HOP-62 NSCLC) greater than 100 µM and a TGI (HOP-62 NSCLC) greater than 100 µM. For the same compound, the GI50 (KM12 colon) was greater than 100 µM, the TGI (KM12 colon) was greater than 100 µM and the GI50 (U251 CNS) was 74.7 µM. The TGI (U251 CNS) was greater than 100 µM, the GI50 (ACHN renal) was greater than 100 µM and the TGI (ACHN renal) was greater than 100 µM. It also gave a GI50 (NCI-H460 lung) of 12.5 µM, a TGI (NCI-H460 lung) of 28.8 µM and a GI50 (K-562 leukemia) of 73.2 µM. It also gave a TGI (K-562 leukemia) greater than 100 µM, a GI50 (LOX IMVI melanoma) of 39.6 µM and a TGI (LOX IMVI melanoma) greater than 100 µM. The GI50 (SNB-75 CNS) was greater than 100 µM, the TGI (SNB-75 CNS) was greater than 100 µM and the GI50 (MOLT-4 leukemia) was 34.8 µM. The TGI (MOLT-4 leukemia) was greater than 100 µM, the GI50 (MCF7 breast) was 7.6 µM and the TGI (MCF7 breast) was 30.3 µM. The GI50 (MDA-MB-435) was greater than 100 µM, the TGI (MDA-MB-435) was greater than 100 µM and the GI50 (MDA-MB-231 breast) was greater than 100 µM. The TGI (MDA-MB-231 breast) was greater than 100 µM, the GI50 (A549 NSCLC) was greater than 100 µM and the TGI (A549 NSCLC) was greater than 100 µM. For the same compound, the GI50 (OVCAR-8 ovarian) was greater than 100 µM, the TGI (OVCAR-8 ovarian) was greater than 100 µM and the GI50 (DU-145 prostate) was greater than 100 µM. For the same compound, the TGI (DU-145 prostate) was greater than 100 µM, the GI50 (MALME-3M melanoma) was greater than 100 µM and the TGI (MALME-3M melanoma) was greater than 100 µM. It also gave a GI50 (CAKI-1 renal) greater than 100 µM, a TGI (CAKI-1 renal) greater than 100 µM and a GI50 (RPMI-8226 leukemia) greater than 100 µM. For the same compound, the TGI (RPMI-8226 leukemia) was greater than 100 µM, the GI50 (COLO 205 colon) was 63.6 µM and the TGI (COLO 205 colon) was greater than 100 µM. The GI50 (SK-MEL-5 melanoma) was 71.4 µM, the TGI (SK-MEL-5 melanoma) was greater than 100 µM and the GI50 (SW-620 colon) was 39.6 µM. The TGI (SW-620 colon) was greater than 100 µM, the GI50 (786-0 renal) was greater than 100 µM and the TGI (786-0 renal) was greater than 100 µM. The GI50 (HT29 colon) was 57.9 µM, the TGI (HT29 colon) was greater than 100 µM and the GI50 (HS 578T breast) was greater than 100 µM. For the same compound, the TGI (HS 578T breast) was greater than 100 µM, the GI50 (EKVX NSCLC) was greater than 100 µM and the TGI (EKVX NSCLC) was greater than 100 µM. The GI50 (UO-31 renal) was 97.1 µM, the TGI (UO-31 renal) was greater than 100 µM and the GI50 (SK-MEL-28 melanoma) was greater than 100 µM. For the same compound, the TGI (SK-MEL-28 melanoma) was greater than 100 µM, the GI50 (UACC-62 melanoma) was 95.4 µM and the TGI (UACC-62 melanoma) was greater than 100 µM. The GI50 (HCT-15 colon) was greater than 100 µM, the TGI (HCT-15 colon) was greater than 100 µM and the GI50 (OVCAR-3 ovarian) was greater than 100 µM. For the same compound, the TGI (OVCAR-3 ovarian) was greater than 100 µM, the GI50 (SN12C renal) was greater than 100 µM and the TGI (SN12C renal) was greater than 100 µM. The GI50 (HCC-2998 colon) was greater than 100 µM, the TGI (HCC-2998 colon) was greater than 100 µM and the GI50 (HOP-92 NSCLC) was greater than 100 µM. For the same compound, the TGI (HOP-92 NSCLC) was greater than 100 µM, the GI50 (HCT-116 colon) was 49.5 µM and the TGI (HCT-116 colon) was greater than 100 µM. For the same compound, the GI50 (NCI-H226 lung) was greater than 100 µM, the TGI (NCI-H226 lung) was greater than 100 µM and the GI50 (SF-539 CNS) was greater than 100 µM. The TGI (SF-539 CNS) was greater than 100 µM.
